Measured values as given in BindingDB's records for doi:10.1021/cb500143h (Tottori University , Yonago 683-8503, Japan, 2014).

Biological target: T1, Alpha-galactosidase A (Homo sapiens, UniProt P06280)
T1 sequence (P06280 whole entry): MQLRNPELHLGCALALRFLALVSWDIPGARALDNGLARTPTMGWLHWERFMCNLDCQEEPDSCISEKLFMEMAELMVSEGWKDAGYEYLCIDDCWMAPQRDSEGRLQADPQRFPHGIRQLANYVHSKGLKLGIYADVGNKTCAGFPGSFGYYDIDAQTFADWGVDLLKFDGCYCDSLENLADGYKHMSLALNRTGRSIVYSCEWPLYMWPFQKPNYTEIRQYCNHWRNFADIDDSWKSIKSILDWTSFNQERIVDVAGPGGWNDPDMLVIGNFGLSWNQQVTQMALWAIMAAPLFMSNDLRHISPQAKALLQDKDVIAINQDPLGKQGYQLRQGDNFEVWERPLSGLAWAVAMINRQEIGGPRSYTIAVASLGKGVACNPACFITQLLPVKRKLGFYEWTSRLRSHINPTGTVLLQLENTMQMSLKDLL
Assay: α-Gal A Assay

IC50 (pH 5) [nM]	IC50 (pH 7) [nM]	SMILES
20300	4410	OC[C@@H]1[C@H](O)[C@H](O)[C@@H](O)CN1C(=S)NCc1ccccc1 [DGJ-BnT]
74	16	COc1ccc(NC(=S)N2C[C@H](O)[C@@H](O)[C@@H](O)[C@H]2CO)cc1 [DGJ-pMe OPhT]
1600	370	OC[C@@H]1[C@H](O)[C@H](O)[C@@H](O)CN1C(=S)Nc1cccc2ccccc12 [DGJ-NphT]
8.3	1.4	CSc1ccc(NC(=S)N2C[C@H](O)[C@@H](O)[C@@H](O)[C@H]2CO)cc1 [DGJ-pMe SPhT]
9670	2180	O[C@@H]1[C@@H](O)CN2/C(=N\c3ccc(F)cc3)SCC2[C@@H]1O (some centres not stated) [pF PhIM-DGJ]
340	43	OC[C@@H]1[C@H](O)[C@H](O)[C@@H](O)CN1C(=S)Nc1ccc(F)cc1 [DGJ-pF PhT]
